In PubChem BioAssay (NCI) one finds TGI data, which are given here for six compounds.

The structures appear in SMILES notation.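 Cultured in 96-well plates, cells were exposed to test compound for 48 hours across five concentrations. At the TGI there is no net growth.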 A value given as a limit tells only on which side of the number the result lay.

Some test systems named below: IGROV1 ovarian; SN12C renal; M14 melanoma; HCC-2998 colon; MDA-MB-231 breast; U251 CNS; NCI-H460 lung; T-47D breast; HL-60(TB) leukemia; SR leukemia; HOP-62 NSCLC; MCF7 breast; HOP-92 NSCLC; RXF 393 renal; DU-145 prostate; MALME-3M melanoma; OVCAR-3 ovarian; LOX IMVI melanoma; UACC-62 melanoma; SK-MEL-2 melanoma.
Experiment in all cases: NCI-60 cell line screen, 48 h

Turning to `CC(=O)Nc1ccc(Sc2nnc(NC(C)=O)s2)cc1`, the TGI in the experiment on IGROV1 ovarian, in the experiment on SN12C renal, with M14 melanoma, in the experiment on HCC-2998 colon, in the experiment with MDA-MB-231 breast and in the experiment on U251 CNS was > 100 µM in each case. Besides, the TGI with NCI-H460 lung, with T-47D breast, in the experiment on HL-60(TB) leukemia, in the experiment with SR leukemia, in the experiment on HOP-62 NSCLC and in the experiment on MCF7 breast was > 100 µM in each case.

`CCN1CCC(O)(c2ccc(O)cc2)C(C(=O)c2ccc(O)cc2)C1` (stereo not drawn): the TGI in the experiment with IGROV1 ovarian turned out to be 44 µM; with HOP-92 NSCLC, 37.5 µM; in the experiment on RXF 393 renal, 30.7 µM; in the experiment with SN12C renal, 42 µM; with M14 melanoma, 36.4 µM; in the experiment with MDA-MB-231 breast it was 31.1 µM. Besides, the TGI is 60 µM in the experiment on DU-145 prostate; 38.8 µM in the experiment on MALME-3M melanoma; 32.8 µM in the experiment on OVCAR-3 ovarian; > 100 µM in the experiment on U251 CNS; > 100 µM in the experiment with NCI-H460 lung; 32.9 µM in the experiment on T-47D breast. Besides, the TGI in the experiment on HL-60(TB) leukemia was > 100 µM; in the experiment on SR leukemia, 43.4 µM; in the experiment with HOP-62 NSCLC, > 100 µM; in the experiment with MCF7 breast, 10.9 µM; with LOX IMVI melanoma, 27.4 µM; in the experiment on UACC-62 melanoma, 30.9 µM.

In the case of `Cc1ccc(-c2cc(-c3ccco3)c(C#N)c(=O)n2C2OC(CO)C(O)C(O)C2O)cc1` (stereo not drawn), the TGI in the experiment on IGROV1 ovarian is > 100 µM; in the experiment with RXF 393 renal it was > 100 µM; with SN12C renal, > 100 µM; with M14 melanoma, > 100 µM; in the experiment on HCC-2998 colon, > 100 µM; with MALME-3M melanoma, 78.2 µM. Further, the TGI was > 100 µM with OVCAR-3 ovarian; > 100 µM with U251 CNS; > 100 µM with NCI-H460 lung; > 100 µM in the experiment on HL-60(TB) leukemia; > 100 µM in the experiment with SR leukemia; 91.4 µM with HOP-62 NSCLC. Further, the TGI in the experiment on LOX IMVI melanoma and in the experiment with UACC-62 melanoma was > 100 µM throughout.

As to `Cn1c(=O)c(Cl)c(N=[N+]=[N-])c2ccccc21`, the TGI with IGROV1 ovarian, in the experiment on HOP-92 NSCLC, in the experiment on RXF 393 renal, in the experiment on SN12C renal, in the experiment on HCC-2998 colon and in the experiment with MDA-MB-231 breast was > 100 µM throughout. Also, the TGI in the experiment with DU-145 prostate, in the experiment on MALME-3M melanoma, in the experiment with OVCAR-3 ovarian, in the experiment on SK-MEL-2 melanoma, in the experiment on U251 CNS and in the experiment on NCI-H460 lung was > 100 µM in each case. The TGI with T-47D breast, in the experiment with SR leukemia, in the experiment with HOP-62 NSCLC, in the experiment on MCF7 breast, in the experiment on LOX IMVI melanoma and with UACC-62 melanoma was > 100 µM each time.

Turning to `CCOC(=O)C(=O)NC12CC3CC(CC(C3)C1)C2`, the TGI in the experiment on IGROV1 ovarian, with HOP-92 NSCLC, with RXF 393 renal, in the experiment on SN12C renal, with M14 melanoma and with HCC-2998 colon was > 100 µM throughout. For the same compound, the TGI in the experiment with MALME-3M melanoma, with SK-MEL-2 melanoma, in the experiment on U251 CNS, with NCI-H460 lung, in the experiment with HL-60(TB) leukemia and in the experiment on HOP-62 NSCLC was > 100 µM in each case. Also, the TGI in the experiment with LOX IMVI melanoma and in the experiment with UACC-62 melanoma was > 100 µM in each case.

For `O=[N+]([O-])C(=C/c1cccs1)/C(=C\c1cccs1)[N+](=O)[O-]`, the TGI in the experiment on HOP-92 NSCLC turned out to be 3.28 µM; with RXF 393 renal, 0.486 µM; with M14 melanoma it was 6.88 µM; in the experiment on HCC-2998 colon it was 2.58 µM; in the experiment on MDA-MB-231 breast, 0.864 µM; in the experiment with DU-145 prostate it was 3.53 µM. Besides, the TGI in the experiment with MALME-3M melanoma is 4.82 µM; with OVCAR-3 ovarian, 21.7 µM; in the experiment on SK-MEL-2 melanoma, 6.46 µM; in the experiment with NCI-H460 lung it was 5.31 µM; in the experiment with T-47D breast, 7.74 µM; with HL-60(TB) leukemia it was 0.139 µM. Besides, the TGI in the experiment with SR leukemia was 0.987 µM; with HOP-62 NSCLC, 5.39 µM; in the experiment with MCF7 breast, 7.72 µM; in the experiment on LOX IMVI melanoma, 0.688 µM; with UACC-62 melanoma, 2.53 µM.
